Laboratory results from PubChem BioAssay (NCI).
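Here, GI50 denotes the concentration required for 50% inhibition of growth. Definition used: TGI = concentration required for complete inhibition of growth.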

Legend:
Assay in all cases: NCI-60 cell line screen, 384-well format
786-0 renal = tested on: 786-0 renal
A549 NSCLC = tested on: A549 NSCLC
ACHN renal = tested on: ACHN renal
DU-145 prostate = tested on: DU-145 prostate
EKVX NSCLC = tested on: EKVX NSCLC
HCT-15 colon = tested on: HCT-15 colon
HOP-92 NSCLC = tested on: HOP-92 NSCLC
HS 578T breast = tested on: HS 578T breast
M14 melanoma = tested on: M14 melanoma
MOLT-4 leukemia = tested on: MOLT-4 leukemia
OVCAR-4 ovarian = tested on: OVCAR-4 ovarian
SN12C renal = tested on: SN12C renal
SNB-75 CNS = tested on: SNB-75 CNS

SMILES: COCc1c(-c2cc3cc(C)cc(OC)c3s2)c2c(N)ncnn2c1CN1CCNC(=O)C1
- GI50 (786-0 renal): 14.2 µM
- TGI (786-0 renal): > 93.2 µM
- GI50 (A549 NSCLC): 5.49 µM
- TGI (A549 NSCLC): > 100 µM
- GI50 (ACHN renal): 6.15 µM
- TGI (ACHN renal): > 100 µM
- GI50 (DU-145 prostate): 6.79 µM
- TGI (DU-145 prostate): > 100 µM
- GI50 (EKVX NSCLC): 5.72 µM
- TGI (EKVX NSCLC): > 69.8 µM
- GI50 (HCT-15 colon): 5.39 µM
- TGI (HCT-15 colon): > 100 µM
- GI50 (HOP-92 NSCLC): 2 µM
- TGI (HOP-92 NSCLC): 18.9 µM
- GI50 (HS 578T breast): 3.76 µM
- TGI (HS 578T breast): 22.4 µM
- GI50 (M14 melanoma): 4.75 µM
- TGI (M14 melanoma): 41 µM
- GI50 (MOLT-4 leukemia): 2.68 µM
- TGI (MOLT-4 leukemia): 8.5 µM
- GI50 (OVCAR-4 ovarian): 13.9 µM
- TGI (OVCAR-4 ovarian): > 100 µM
- GI50 (SN12C renal): 7.95 µM
- TGI (SN12C renal): > 73.6 µM
- GI50 (SNB-75 CNS): 1.63 µM
- TGI (SNB-75 CNS): 20.5 µM
